# Reference: ChEMBL document CHEMBL3885881, “DrugMatrix”
# Organism: Rattus norvegicus
# Assay: DrugMatrix - Regimen: Daily Repeat
# Type: toxicity, organism-based, Sprague-Dawley
# Design: regimen Daily Repeat, gender Male, age 6-8 weeks
# Conditions: in vivo, sc, route subcutaneous, […]; for ABSOLUTE BASOPHIL / ABSOLUTE EOSINOPHIL / ABSOLUTE LYMPHOCYTE / ABSOLUTE MONOCYTE / ABSOLUTE SEGMENTED NEUTROPHIL / BASOPHIL / EOSINOPHIL / ERYTHROCYTE COUNT / HEMATOCRIT / HEMOGLOBIN / LEUKOCYTE COUNT / LYMPHOCYTE / MEAN CORPUSCULAR HEMOGLOBIN / MEAN CORPUSCULAR HEMOGLOBIN CONCENTRATION / MEAN CORPUSCULAR VOLUME / MONOCYTE / NEUTROPHIL / NUCLEATED RED BLOOD CELLS / PLATELET COUNT: tissue Blood; for ALANINE AMINOTRANSFERASE / ALBUMIN / ALKALINE PHOSPHATASE / ASPARTATE AMINOTRANSFERASE / BLOOD UREA NITROGEN / CARBON DIOXIDE / CHLORIDE / CHOLESTEROL / CREATINE PHOSPHOKINASE / CREATININE / GLUCOSE / LACTATE DEHYDROGENASE / LIPASE / PHOSPHORUS / POTASSIUM / SODIUM / TOTAL BILIRUBIN / TOTAL PROTEIN / URIC ACID: tissue Plasma
# [1] = 0 mg/kg, 72 h, dose level Control, time 3 day
# [2] = 0 mg/kg, 120 h, dose level Control, time 5 day
# [3] = 50 mg/kg, 72 h, dose level Low, time 3 day
smiles,measurement,setting,value
CC(C)(c1ccc(O)cc1)c1ccc(O)cc1 [BISPHENOL A],ABSOLUTE BASOPHIL,[1],0 CELLS/uL
same,ABSOLUTE EOSINOPHIL,[1],0 CELLS/uL
same,ABSOLUTE LYMPHOCYTE,[1],9782.33 CELLS/uL
same,ABSOLUTE MONOCYTE,[1],114.67 CELLS/uL
same,ABSOLUTE SEGMENTED NEUTROPHIL,[1],753 CELLS/uL
same,BASOPHIL,[1],0%
same,EOSINOPHIL,[1],0%
same,ERYTHROCYTE COUNT,[1],5.14 x10E6/uL
same,HEMATOCRIT,[1],32.12%
same,HEMOGLOBIN,[1],13.13 G/DL
same,LEUKOCYTE COUNT,[1],10.65 x10E3/uL
same,LYMPHOCYTE,[1],91.83%
same,MEAN CORPUSCULAR HEMOGLOBIN,[1],25.83 pg
same,MEAN CORPUSCULAR HEMOGLOBIN CONCENTRATION,[1],41.28 G/DL
same,MEAN CORPUSCULAR VOLUME,[1],62.43 fL
same,MONOCYTE,[1],1%
same,NEUTROPHIL,[1],7.17%
same,NUCLEATED RED BLOOD CELLS,[1],0.17 /100WBC
same,PLATELET COUNT,[1],657.83 x10E3/uL
same,ALANINE AMINOTRANSFERASE,[1],60.33 u/L
same,ALBUMIN,[1],3.83 G/DL
same,ALKALINE PHOSPHATASE,[1],366.33 u/L
same,ASPARTATE AMINOTRANSFERASE,[1],104.5 u/L
same,BLOOD UREA NITROGEN,[1],12.33 mg/dL
same,CARBON DIOXIDE,[1],23.17 mmol/L
same,CHLORIDE,[1],96.67 MEQ/L
same,CHOLESTEROL,[1],73.17 mg/dL
same,CREATINE PHOSPHOKINASE,[1],545.83 u/L
same,CREATININE,[1],0.26 mg/dL
same,GLUCOSE,[1],144.33 mg/dL
same,LACTATE DEHYDROGENASE,[1],147.5 u/L
same,LIPASE,[1],9.33 u/L
same,PHOSPHORUS,[1],10.83 mg/dL
same,POTASSIUM,[1],5.68 MEQ/L
same,SODIUM,[1],138.83 MEQ/L
same,TOTAL BILIRUBIN,[1],0.17 mg/dL
same,TOTAL PROTEIN,[1],5.42 G/DL
same,URIC ACID,[1],0.65 mg/dL
same,ABSOLUTE BASOPHIL,[2],0 CELLS/uL
same,ABSOLUTE EOSINOPHIL,[2],43.33 CELLS/uL
same,ABSOLUTE LYMPHOCYTE,[2],12883 CELLS/uL
same,ABSOLUTE MONOCYTE,[2],166.83 CELLS/uL
same,ABSOLUTE SEGMENTED NEUTROPHIL,[2],1290.17 CELLS/uL
same,BASOPHIL,[2],0%
same,EOSINOPHIL,[2],0.33%
same,ERYTHROCYTE COUNT,[2],5.79 x10E6/uL
same,HEMATOCRIT,[2],36.37%
same,HEMOGLOBIN,[2],14.17 G/DL
same,LEUKOCYTE COUNT,[2],14.38 x10E3/uL
same,LYMPHOCYTE,[2],89.17%
same,MEAN CORPUSCULAR HEMOGLOBIN,[2],24.48 pg
same,MEAN CORPUSCULAR HEMOGLOBIN CONCENTRATION,[2],38.98 G/DL
same,MEAN CORPUSCULAR VOLUME,[2],62.83 fL
same,MONOCYTE,[2],1.17%
same,NEUTROPHIL,[2],9.33%
same,NUCLEATED RED BLOOD CELLS,[2],0.5 /100WBC
same,PLATELET COUNT,[2],1267.33 x10E3/uL
same,ALANINE AMINOTRANSFERASE,[2],53.5 u/L
same,ALBUMIN,[2],3.82 G/DL
same,ALKALINE PHOSPHATASE,[2],342.33 u/L
same,ASPARTATE AMINOTRANSFERASE,[2],83.67 u/L
same,BLOOD UREA NITROGEN,[2],13.17 mg/dL
same,CARBON DIOXIDE,[2],28.17 mmol/L
same,CHLORIDE,[2],101.5 MEQ/L
same,CHOLESTEROL,[2],70.83 mg/dL
same,CREATINE PHOSPHOKINASE,[2],656.67 u/L
same,CREATININE,[2],0.17 mg/dL
same,GLUCOSE,[2],171.33 mg/dL
same,LACTATE DEHYDROGENASE,[2],169 u/L
same,LIPASE,[2],9.17 u/L
same,PHOSPHORUS,[2],12.88 mg/dL
same,POTASSIUM,[2],6.54 MEQ/L
same,SODIUM,[2],141.2 MEQ/L
same,TOTAL BILIRUBIN,[2],0.18 mg/dL
same,TOTAL PROTEIN,[2],5.68 G/DL
same,URIC ACID,[2],2.02 mg/dL
same,ABSOLUTE BASOPHIL,[3],0 CELLS/uL
same,ABSOLUTE EOSINOPHIL,[3],47.33 CELLS/uL
same,ABSOLUTE LYMPHOCYTE,[3],13197 CELLS/uL
same,ABSOLUTE MONOCYTE,[3],0 CELLS/uL
same,ABSOLUTE SEGMENTED NEUTROPHIL,[3],655.67 CELLS/uL
same,BASOPHIL,[3],0%
same,EOSINOPHIL,[3],0.33%
same,ERYTHROCYTE COUNT,[3],5.26 x10E6/uL
same,HEMATOCRIT,[3],33.73%
same,HEMOGLOBIN,[3],13.37 G/DL
same,LEUKOCYTE COUNT,[3],13.9 x10E3/uL
same,LYMPHOCYTE,[3],94.67%
same,MEAN CORPUSCULAR HEMOGLOBIN,[3],25.43 pg
same,MEAN CORPUSCULAR HEMOGLOBIN CONCENTRATION,[3],39.67 G/DL
same,MEAN CORPUSCULAR VOLUME,[3],64.23 fL
same,MONOCYTE,[3],0%
same,NEUTROPHIL,[3],5%
same,NUCLEATED RED BLOOD CELLS,[3],0 /100WBC
same,PLATELET COUNT,[3],1085.33 x10E3/uL
same,ALANINE AMINOTRANSFERASE,[3],58.33 u/L
same,ALBUMIN,[3],4.1 G/DL
same,ALKALINE PHOSPHATASE,[3],341 u/L
same,ASPARTATE AMINOTRANSFERASE,[3],86.67 u/L
same,BLOOD UREA NITROGEN,[3],11.33 mg/dL
same,CARBON DIOXIDE,[3],27.67 mmol/L
same,CHLORIDE,[3],96.5 MEQ/L
same,CHOLESTEROL,[3],65.67 mg/dL
same,CREATINE PHOSPHOKINASE,[3],317.33 u/L
same,CREATININE,[3],0.21 mg/dL
same,GLUCOSE,[3],134 mg/dL
same,LACTATE DEHYDROGENASE,[3],126.67 u/L
same,LIPASE,[3],12.33 u/L
same,PHOSPHORUS,[3],10.53 mg/dL
same,POTASSIUM,[3],5.77 MEQ/L
same,SODIUM,[3],139.05 MEQ/L
same,TOTAL BILIRUBIN,[3],0.17 mg/dL
same,TOTAL PROTEIN,[3],5.33 G/DL
same,URIC ACID,[3],0.37 mg/dL
